Patent publication US5284853A, “Angiotensin II receptor blocking 2,3,6 substituted quinazolinones” (American Cyanamid Company, priority 1993, dated 1994)
Several values for one entry are separate records, joined by “and”; a condition that tells them apart may be missing. Identical values can stand only once.

Tests used:
[1] = target: T1, Angiotensin II Receptor (Bos taurus, UniProt P25104); test: Receptor binding assay: competition of [^125 I](Sar^1,Ile^8)AngII binding to beef adrenal cortex microsomal membranes; conditions: 60 min, room temperature, pH 7.4
T1 construct: The brownish tissue forming the adrenal cortex is scraped off and finely minced with scissors before homogenization; tissue local slaughter house (Maxwell-Cohen); host or cells: beef adrenal cortex, microsomal membranes (100,000×g pellet)
T1 sequence (P25104 1-359): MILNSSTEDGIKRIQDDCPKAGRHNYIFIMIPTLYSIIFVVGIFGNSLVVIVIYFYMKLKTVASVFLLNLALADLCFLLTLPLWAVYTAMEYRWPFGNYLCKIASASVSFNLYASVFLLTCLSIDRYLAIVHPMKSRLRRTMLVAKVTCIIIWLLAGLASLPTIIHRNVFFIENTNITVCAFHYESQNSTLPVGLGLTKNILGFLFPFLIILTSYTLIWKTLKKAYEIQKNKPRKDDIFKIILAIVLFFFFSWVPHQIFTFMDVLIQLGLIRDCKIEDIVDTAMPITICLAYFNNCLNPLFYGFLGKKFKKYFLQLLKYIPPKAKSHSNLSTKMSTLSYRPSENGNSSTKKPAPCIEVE
Description: Beef adrenals are obtained from a local slaughter house (Maxwell-Cohen). [^125 […]. 2200 Ci/mmole, is purchased from Dupont (KEN@, Boston, Mass.). All unlabeled AngII analogs, Dimethylsulfoxide (DMSO), nucleotides, bovine serum albumin (BBA) are purchased from Sigma Chemical Co., St. Louis, MO U.S.A. Approximately sixteen (16) to twenty (20) beef adrenal glands are processed as follows: fresh adrenal glands received on crushed ice are cleaned of fatty tissues and the tough membranes encapsulating the glands are removed and discarded. The brownish tissue forming the adrenal cortex is scraped off and finely minced with scissors before homogenization care is taken to avoid contamination with medullary tissue during dissection. […] Unless otherwise indicated, all subsequent operations are done at […]. […] The homogenate is centrifuged first at low speed (3,000×g) for 10 min. […] This P2 pellet is discarded and the liquid phase is carefully decanted off in clean centrifuge tubes and recentrifuged at high speed (100,000×g) for 60 min. The translucent final pellet is harvested and combined in a small volume (20-50.0 ml) of […] Tris.HCl buffer, pH 7.2. A 100 ul aliquot is withdrawn and the protein content of the preparation is determined by the Lowry's method (Lowry, O. H., Rosebrough, N. P., Parr, A. L. and Randall, R. J., Protein measurement with Folin phenol reagent. J. Biol. Chem., […], 265-275, 1951). The pelleted membrane is reconstituted in 50.0 mM Tris.HCl buffer containing 0.1 mM of phenylmethylsulfonyl fluoride (PMSF) to give approximately a protein concentration of 2.5 mg per ml of tissue suspension. […] In competition studies, experimental compounds are diluted in dimethylsulfoxide (DMSO) and added in 20 ul to wells before the introduction of tissue membranes. This concentration of DMSO is found to have no negative effects on the binding of [^125 I] ([…] to the membranes. Assays are performed in triplicate. The wells are left undisturbed for 60 min. at room temperature. Following incubation, all wells are harvested at once with a Brandel® Harvester especially designed for a 96 well plate (Brandel® Biomedical Research & Development Labs. Inc., Gaithersburg, MD, U.S.A.). The filter discs are washed with 10×1.0 ml of cold 0.9% NaCl to remove unbound ligand. Presoaking the filter sheet in 0.1% polyethyleneimine in normal saline (PEI/Saline) greatly reduces the radioactivity retained by the filter blanks. This method is routinely used. The filters are removed from the filter grid and counted in a Parkard® Cobra Gamma Counter for 1 min. (Packard Instrument Co., Downers Grove, Ill, U.S.A.). The binding data are analyzed by the non-linear interactive "LUNDON-11" program (LUNDON SOFTWARE Inc., Cleveland, OH U.S.A.).

[2] = system: Angiotensin II (AII) vasopressor response; test: AII Challenge: antagonism of the angiotensin II vasopressor response in conscious SHR; format: in vivo, Spontaneously hypertensive rats (Male okamoto-Aoki SHR); conditions: 10 mg/kg I.V.; for Average Change / Inhibition: n = 2; for Change / Control Before AII / Response After AII: per rat
Description: […] Conscious Male okamoto-Aoki SHR, 16-20 weeks old, weighing approximately 330 g are purchased from Charles River Labs (Wilmington, MA). Conscious rats are restrained in a supine position with elastic tape. The area at the base of the tail is locally anesthetized by subcutaneous infiltration with 2% procaine. […] The cannula is secured, heparinized (1,000 I.U./ml), sealed and the wound is closed. The animals are placed in plastic restraining cages in an upright position. The cannula is attached to a Statham P23Db pressure transducer, and pulsatile blood pressure is recorded to 10-15 minutes with a Gould Brush recorder. (Chan et al., (Drug Development Res., 18:75-94, 1989). […] Co., St. […] […] […] […] […] A compound is considered active if at 30 mg/kg i.v. it antagonized at least 50% of the response.

[3] = AII 0.05 mcg/kg IV, 30 min post dose
[4] = AII 0.05 mcg/kg IV, 60 min post dose
[5] = AII 0.05 mcg/kg IV, 90 min post dose
[6] = AII 0.05 mcg/kg IV, 120 min post dose
[7] = AII 0.05 mcg/kg IV, 180 min post dose
[8] = AII 0.1 mcg/kg IV, 30 min post dose
[9] = AII 0.1 mcg/kg IV, 60 min post dose
[10] = AII 0.1 mcg/kg IV, 90 min post dose
[11] = AII 0.1 mcg/kg IV, 120 min post dose
[12] = AII 0.1 mcg/kg IV, 180 min post dose

## CCCCc1nc2ccc(C3CC(C(=O)OCC)=NO3)cc2c(=O)n1Cc1ccc(-c2ccccc2-c2nnn[nH]2)cc1 (stereo not shown) [Example 26, Ethyl 5-[2-butyl-3,4-dihydro-4-oxo-3-[[2'-(lH-tetrazol-5-yl)[1,1'-biphenyl]-4-yl]-methyl]-6-cruinazo-linyl]-4,5-dihydro-3-isoxazolecarboxylate]
[1]
  IC50: 30 nM
[2]; [3]
  Average Change: 15 mmhg
  Inhibition: 73%
  Change: 15 mmhg
  Control Before AII: 180 mmhg and 175 mmhg
  Response After AII: 195 mmhg and 190 mmhg
[2]; [4]
  Average Change: 10.5 mmhg
  Inhibition: 81%
  Change: 20 mmhg and 1 mmhg
  Control Before AII: 175 mmhg and 195 mmhg
  Response After AII: 195 mmhg and 196 mmhg
[2]; [5]
  Average Change: 17 mmhg
  Inhibition: 70%
  Change: 15 mmhg and 19 mmhg
  Control Before AII: 175 mmhg and 165 mmhg
  Response After AII: 190 mmhg and 184 mmhg
[2]; [6]
  Average Change: 20 mmhg
  Inhibition: 64%
  Change: 20 mmhg
  Control Before AII: 165 mmhg
  Response After AII: 185 mmhg
[2]; [7]
  Average Change: 17.5 mmhg
  Inhibition: 69%
  Change: 15 mmhg and 20 mmhg
  Control Before AII: 170 mmhg and 165 mmhg
  Response After AII: 185 mmhg
[2]; [8]
  Average Change: 11 mmhg
  Inhibition: 79%
  Change: 7 mmhg and 15 mmhg
  Control Before AII: 185 mmhg and 170 mmhg
  Response After AII: 192 mmhg and 185 mmhg
[2]; [9]
  Average Change: 12.5 mmhg
  Inhibition: 77%
  Change: 15 mmhg and 10 mmhg
  Control Before AII: 180 mmhg and 175 mmhg
  Response After AII: 195 mmhg and 185 mmhg
[2]; [10]
  Average Change: 15 mmhg
  Inhibition: 72%
  Change: 15 mmhg
  Control Before AII: 185 mmhg and 175 mmhg
  Response After AII: 200 mmhg and 190 mmhg
[2]; [11]
  Average Change: 18.5 mmhg
  Inhibition: 65%
  Change: 17 mmhg and 20 mmhg
  Control Before AII: 175 mmhg and 165 mmhg
  Response After AII: 192 mmhg and 185 mmhg
[2]; [12]
  Average Change: 38.5 mmhg
  Inhibition: 28%
  Change: 37 mmhg and 40 mmhg
  Control Before AII: 170 mmhg and 165 mmhg
  Response After AII: 207 mmhg and 205 mmhg

## CCCCc1nc2ccc(C3CC(c4ccc(C)cc4)=NO3)cc2c(=O)n1Cc1ccc(-c2ccccc2-c2nnn[nH]2)cc1 (stereo not shown) [Example 23, 2-Butyl-6-[4,5-dihydro-3-(4-methylphenyl)-5-isoxazolyl]-3-[[2'-(lH-tetrazol-5-yl)[1,1'-biphenyl]-4-yl]methyl]-4(3H)-quinazolinone]
[1]
  IC50: 70 nM
